According to ChEMBL document CHEMBL1649413, “Structure-activity relationship of 4(5)-aryl-2-amino-1H-imidazoles, N1-substituted 2-aminoimidazoles and imidazo[1,2-a]pyrimidinium salts as inhibitors of biofilm formation by Salmonella typhimurium and Pseudomonas aeruginosa” (J Med Chem, 2011):
Active and inactive are the calls of the source. No cut-off for these calls is given here.

Legend:
Pseudomonas aeruginosa [1] = test: Antimicrobial activity against Pseudomonas aeruginosa assessed as inhibition of planktonic growth at 80 uM at 25 degC after 24 hrs; format: functional, organism-based
Salmonella typhimurium [2] = test: Antimicrobial activity against Salmonella Typhimurium ATCC 14028 assessed as inhibition of planktonic growth at 40 uM at 25 degC after 24 hrs; format: functional, organism-based; details: Salmonella enterica subsp. enterica serovar Typhimurium
Salmonella typhimurium [3] = test: Antibiofilm activity in Salmonella Typhimurium ATCC 14028 assessed as inhibition of biofilm formation at 25 degC after 24 hrs; format: functional, organism-based, Salmonella enterica subsp. enterica serovar Typhimurium; details: Salmonella enterica, ATCC 14028, 24 h
Salmonella typhimurium [4] = test: Antimicrobial activity against Salmonella Typhimurium ATCC 14028 assessed as inhibition of planktonic growth at 4 uM at 25 degC after 24 hrs; format: functional, organism-based; details: Salmonella enterica subsp. enterica serovar Typhimurium
Pseudomonas aeruginosa [5] = test: Antibiofilm activity in Pseudomonas aeruginosa assessed as inhibition of biofilm formation at 25 degC after 24 hrs; format: functional, organism-based
Pseudomonas aeruginosa [6] = test: Antimicrobial activity against Pseudomonas aeruginosa assessed as inhibition of planktonic growth at 40 uM at 25 degC after 24 hrs; format: functional, organism-based
Salmonella typhimurium [7] = test: Antimicrobial activity against Salmonella Typhimurium ATCC 14028 assessed as inhibition of planktonic growth at 20 uM at 25 degC after 24 hrs; format: functional, organism-based; details: Salmonella enterica subsp. enterica serovar Typhimurium
Pseudomonas aeruginosa [8] = test: Antimicrobial activity against Pseudomonas aeruginosa assessed as inhibition of planktonic growth at 5 uM at 25 degC after 24 hrs; format: functional, organism-based
Pseudomonas aeruginosa [9] = test: Antimicrobial activity against Pseudomonas aeruginosa assessed as inhibition of planktonic growth at 20 uM at 25 degC after 24 hrs; format: functional, organism-based
Salmonella typhimurium [10] = test: Antimicrobial activity against Salmonella Typhimurium ATCC 14028 assessed as inhibition of planktonic growth at 10 uM at 25 degC after 24 hrs; format: functional, organism-based; details: Salmonella enterica subsp. enterica serovar Typhimurium
Pseudomonas aeruginosa [11] = test: Antimicrobial activity against Pseudomonas aeruginosa assessed as inhibition of planktonic growth at 10 uM at 25 degC after 24 hrs; format: functional, organism-based
Salmonella typhimurium [12] = test: Antimicrobial activity against Salmonella Typhimurium ATCC 14028 assessed as inhibition of planktonic growth at 80 uM at 25 degC after 24 hrs; format: functional, organism-based; details: Salmonella enterica subsp. enterica serovar Typhimurium
Salmonella typhimurium [13] = test: Antibiofilm activity in Salmonella Typhimurium ATCC 14028 assessed as inhibition of biofilm formation at 37 degC after 24 hrs; format: functional, organism-based, Salmonella enterica subsp. enterica serovar Typhimurium; details: Salmonella enterica, ATCC 14028, 24 h
Pseudomonas aeruginosa [14] = test: Antimicrobial activity against Pseudomonas aeruginosa assessed as inhibition of planktonic growth at 20 uM at 37 degC after 24 hrs; format: functional, organism-based
Salmonella typhimurium [15] = test: Antimicrobial activity against Salmonella Typhimurium ATCC 14028 assessed as inhibition of planktonic growth at 200 uM at 25 degC after 24 hrs; format: functional, organism-based; details: Salmonella enterica subsp. enterica serovar Typhimurium
Pseudomonas aeruginosa [16] = test: Antimicrobial activity against Pseudomonas aeruginosa assessed as inhibition of planktonic growth at 40 uM at 37 degC after 24 hrs; format: functional, organism-based
Pseudomonas aeruginosa [17] = test: Antibiofilm activity in Pseudomonas aeruginosa assessed as inhibition of biofilm formation at 37 degC after 24 hrs; format: functional, organism-based
Pseudomonas aeruginosa [18] = test: Antimicrobial activity against Pseudomonas aeruginosa assessed as inhibition of planktonic growth at 100 uM at 37 degC after 24 hrs; format: functional, organism-based
Salmonella typhimurium [19] = test: Antimicrobial activity against Salmonella Typhimurium ATCC 14028 assessed as inhibition of planktonic growth at 400 uM at 25 degC after 24 hrs; format: functional, organism-based; details: Salmonella enterica subsp. enterica serovar Typhimurium

IC50 (Salmonella typhimurium [3]) [µM] | IC50 (Pseudomonas aeruginosa [5]) [µM] | IC50 (Salmonella typhimurium [13]) [µM] | IC50 (Pseudomonas aeruginosa [17]) [µM] | Structure (SMILES) | inhibition (Pseudomonas aeruginosa [1]) | inhibition (Salmonella typhimurium [2]) | inhibition (Salmonella typhimurium [4]) | inhibition (Pseudomonas aeruginosa [6]) | inhibition (Salmonella typhimurium [7]) | inhibition (Pseudomonas aeruginosa [8]) | inhibition (Pseudomonas aeruginosa [9]) | inhibition (Salmonella typhimurium [10]) | inhibition (Pseudomonas aeruginosa [11]) | inhibition (Salmonella typhimurium [12]) | inhibition (Pseudomonas aeruginosa [14]) | inhibition (Salmonella typhimurium [15]) | inhibition (Pseudomonas aeruginosa [16]) | inhibition (Pseudomonas aeruginosa [18]) | inhibition (Salmonella typhimurium [19])
5.7 | > 400 |  |  | CCCCCCCCCCn1c(-c2ccc(-c3ccccc3)cc2)cnc1N | inactive | inactive | inactive | inactive | inactive | inactive |  |  |  |  |  |  |  |  | 
8 | 6 |  |  | CCCCCn1c(-c2ccc(Cl)cc2)cnc1N |  | Active | inactive |  | Active | inactive | inactive | inactive | inactive |  |  |  |  |  | 
1.5 | 1 |  |  | CCCCCCCC[n+]1c(-c2ccc(-c3ccc([N+](=O)[O-])cc3)cc2)cn2cccnc21.[O-][Cl+3]([O-])([O-])[O-] |  |  | Active | Active |  | Active | Active | Active | Active |  |  |  |  |  | 
10.8 |  |  |  | Nc1nc(-c2ccc(Cl)cc2)c(-c2ccc(C(F)(F)F)cc2)[nH]1 |  | Active | inactive |  | Active |  |  | Active |  | Active |  |  |  |  | 
4.9 | 5.4 |  |  | CCCCCCn1c(-c2ccc(Cl)cc2)cnc1N |  |  | Active |  |  | inactive |  | Active | inactive |  |  |  |  |  | 
8.7 | 9.8 |  |  | CCCCCCCCCCCCCCn1c(-c2ccccc2)cnc1N | inactive | inactive |  | inactive | inactive |  |  | inactive | inactive | inactive |  |  |  |  | 
40.5 | 4.5 |  |  | Nc1ncc(-c2ccccc2)n1C1CCCCCCC1 | inactive |  |  | inactive | inactive | inactive |  | inactive |  | Active |  |  |  |  | 
35.4 |  |  |  | CCCCCCCCn1c(-c2ccc([N+](=O)[O-])cc2)cnc1N |  | Active |  |  |  |  |  |  |  | Active |  |  |  |  | 
84.4 | 15 | 238 | 47.6 | Nc1ncc(-c2ccc(F)cc2)[nH]1 |  | Active | inactive | inactive |  |  |  |  | inactive |  | inactive | Active | inactive | inactive | 
6 | 8.4 |  |  | CCCCCCCCCn1c(-c2ccccc2)cnc1N |  |  | inactive |  | Active | inactive | Active | Active | inactive |  |  |  |  |  | 
85.2 | 4.6 |  |  | Nc1ncc(-c2ccccc2)n1C1CCCCC1 | inactive |  |  | inactive |  | inactive |  |  |  |  |  |  |  |  | 
16 | 3.5 | 30.1 | 29.3 | Nc1ncc(-c2ccc(Cl)cc2)[nH]1 |  | inactive | inactive |  |  | inactive |  |  |  |  | inactive |  |  |  | Active
11.6 | 6 |  |  | Nc1ncc(-c2ccc(Cl)cc2)n1C1CCC1 | Active | Active |  | inactive |  | inactive |  | inactive |  | Active |  |  |  |  | 
9.5 | 2.6 |  |  | CCCCCCCn1c(-c2ccc(Cl)cc2)cnc1N |  |  | inactive |  |  | inactive |  | Active | Active |  |  |  |  |  | 
14.6 | > 800 |  |  | Nc1ncc(-c2ccccc2)n1C1CCCCCCCCCCC1 |  | inactive |  |  |  |  |  | inactive |  | inactive |  |  |  |  | 
453 | 19.1 |  |  | CCCCCCCCCCCCCCn1c(-c2ccc(Cl)cc2)cnc1N | inactive |  |  | inactive |  | inactive |  |  |  |  |  |  |  |  | 
53.2 | 11.3 |  |  | CCn1c(-c2ccc(Cl)cc2)cnc1N |  | Active | inactive |  | inactive |  | inactive | inactive | inactive | Active |  |  |  |  | 
12.9 |  |  |  | Cc1ccc(-c2[nH]c(N)nc2-c2ccc(Cl)cc2)cc1 |  | Active | inactive |  | Active |  |  | Active |  | Active |  |  |  |  | 
5.9 | 4 |  |  | CCCCCCCCn1c(-c2ccc(Cl)cc2)cnc1N |  |  | Active |  | Active | inactive | Active | Active | Active |  |  |  |  |  | 
6 | 6.8 |  |  | CCCCCCCC[n+]1c(-c2cccc3ccccc23)cn2cccnc21.[O-][Cl+3]([O-])([O-])[O-] |  |  | inactive | Active |  | inactive | Active | Active | Active |  |  |  |  |  | 
7.5 | 353 |  |  | Nc1ncc(-c2ccc(-c3ccccc3)cc2)n1C1CCCC1 |  | Active | inactive |  | Active |  |  | inactive |  | Active |  |  |  |  | 
16.4 | > 400 |  |  | CCCCCCCCCn1c(-c2ccc(-c3ccccc3)cc2)cnc1N |  | Active |  |  | inactive |  |  |  |  | Active |  |  |  |  | 
48.4 | 2.1 |  |  | CCCCCn1c(-c2ccccc2)cnc1N | inactive | inactive | inactive | inactive | inactive | inactive |  | inactive | inactive | Active |  |  |  |  | 
23.9 | 5 |  |  | Nc1nc(-c2ccccc2)c(-c2ccccc2)n1C1CCCCC1 |  | inactive |  | inactive | inactive |  | inactive | inactive |  | inactive |  |  |  |  | 
7.1 | 12.8 |  |  | CCCCCCCCCCCCn1c(-c2ccccc2)cnc1N | inactive |  | inactive | inactive | Active |  |  | Active | inactive |  |  |  |  |  | 
18.2 |  |  |  | Nc1nc(-c2ccc(F)cc2)c(-c2ccc(F)cc2)[nH]1 |  | Active | inactive |  | Active |  |  | inactive |  | Active |  |  |  |  | 
116 | 19.9 |  |  | Nc1ncc(-c2ccccc2)n1C1CCC1 | inactive |  |  | inactive |  |  | inactive |  |  |  |  |  |  |  | 
26.9 | 14.2 |  |  | Nc1ncc(-c2ccccc2)n1C1CCCCCC1 | inactive |  |  | inactive |  |  |  |  | inactive |  |  |  |  |  | 
14 | 95.1 |  |  | CCn1c(-c2ccc(-c3ccccc3)cc2)cnc1N |  | Active | inactive |  | inactive |  |  | inactive |  | Active |  |  |  |  | 
6.7 | 2.8 |  |  | CCCCCCCCn1c(-c2ccc(SC)cc2)cnc1N |  |  | inactive |  |  | inactive | Active | Active | Active |  |  |  |  |  | 
